Laboratory results from patent US12459939B2 (SHANGHAI RINGENE BIOPHARMA CO., LTD., priority 2019, dated 2025).
Where two headings read alike, the source gives them in different places.

What was measured:
[1] = In vivo pharmacokinetics in mice; settings: male, Balb c, mouse, plasma, po, 5 mg/kg; for AUC / Cmax / half-life: gavage
Procedure: Six male SPF-grade SD rats or Balb c mice (Shanghai B&K laboratory animals) were divided into two groups and the test compounds were configured into suitable solutions or suspensions; one group was administered intravenously and one group was administered orally. Blood was collected by jugular vein puncture, and each sample was collected about 0.2 mL/time point, heparin sodium was used for anticoagulation, the blood collection time points were as follows: before administration and 5, 15 and 30 minutes, 1, 2, 4, 6, 8 and 24 h after administration, the blood sample was collected and placed on ice, centrifuged to separate the plasma (centrifugation conditions: 8000 rpm, 6 minutes, 2-8° C.), and the collected plasma was stored at −80° C. before analysis. The plasma samples were analyzed by LC-MS/MS.
According to the blood drug concentration data of the drug, the pharmacokinetic calculation software WinNonlin5.2 non-compartmental model was used to calculate the pharmacokinetic parameters AUC0-t, AUC0-∞, MRT0-∞, Cmax, Tmax, T1/2 and Vd and other parameters and their mean and standard deviation. In addition, the bioavailability (F) was calculated by the following formula.
For samples with a concentration lower than the lower limit of quantification, when calculating the pharmacokinetic parameters, the samples sampled before reaching Cmax should be calculated as zero, and samples sampled after reaching Cmax should be calculated as unquantifiable (BLQ).

[2] = system: most AML cell lines and prostate cancer cell lines; experiment: Proliferation inhibition of different cell lines: AML and prostate cancer lines; type: cell-based; settings: read-out: proliferation inhibitory activity IC50
Procedure: (§1) The proliferation inhibitory activity of some of the embodiment compounds against different cell lines such as LNCAP (+R1881), SKM-1, 22RV1, DU145, MOLM13, MDA-PCA-2b, KASUMI 1, THP-1, KG-1, IEC6, H1299, etc., was tested using similar methods in test embodiment 2 and in the literature.

[3] = In vivo pharmacokinetics in beagle dogs; settings: dog, plasma, po, gavage, 10 mg/kg
[4] = system: LNCAP, SKM-1, MOLM13, KASUMI 1, THP-1, KG-1; experiment: Proliferation inhibition of different cell lines: most sensitive lines; type: cell-based; settings: some cell lines such as LNCAP, read-out: proliferation inhibitory activity IC50
Procedure: as §1

H1299 = experiment: Proliferation inhibition of H1299 cells; type: cell-based; settings: Homo sapiens, NCI-H1299; H1299 cell line; read-out: proliferation inhibitory activity IC50
Procedure: as §1

BRD4-BD2 = target: T1, BRD4-BD2 (Homo sapiens, UniProt O60885); experiment: BRD4 AlphaScreen determination (BD2); type: binding
T1 construct: purchased ReactionBiologyCorp; (RBC)
Procedure: (1) 1× Assay buffer was prepared according to the kit requirements of ReactionBiologyCorp. (RBC). (2) Compound concentration gradient preparation: the test compounds were tested at final concentrations starting at 10 μM, with 10 concentrations at 3-fold dilution and single well test was set for each concentration. The positive control compound(+)-JQ-1 was tested at final concentrations starting at 1 μM, with 10 concentrations at 3-fold dilution, and duplicated well test was set for each concentration. The solution was gradient diluted to the corresponding 1000-fold final concentration in a 384-well Source plate, and then 20 nL of the solution was transferred to the 384-well reaction plate with Echo550 to be measured. 20 nL of 100% DMSO was transferred to the Max well, and the highest concentration of the positive compounds were transferred to the Min wells. […] (6) 5 μL of 4× peptide solution was added to each well of the reaction plate, centrifuged at 1000 rpm for 1 min. (7) 10 μL of the assay solution was added, centrifuged at 1000 rpm for 60 seconds, the solution was mixed with gentle shaking, and incubated at room temperature for 60 minutes. (8) Reading with EnVision. (9) The IC50 values of the compounds for protein binding inhibition was obtained by fitting the dose-effect curve with the analytical software GraphPad Prism 5. (See Table 1 for specific values)

CYP1A2 = target: T2, CYP1A2 (Homo sapiens, UniProt P05177); experiment: Direct inhibition test (DI test) in human liver microsomes, CYP1A2; type: in vitro ADME; settings: read-out: inhibitory IC50 on CYP1A2
T2 construct: human liver microsomes (final concentration was 0.2 mg/mL); from tissue; host or cells: human liver microsomes
T2 sequence (P05177 1-516): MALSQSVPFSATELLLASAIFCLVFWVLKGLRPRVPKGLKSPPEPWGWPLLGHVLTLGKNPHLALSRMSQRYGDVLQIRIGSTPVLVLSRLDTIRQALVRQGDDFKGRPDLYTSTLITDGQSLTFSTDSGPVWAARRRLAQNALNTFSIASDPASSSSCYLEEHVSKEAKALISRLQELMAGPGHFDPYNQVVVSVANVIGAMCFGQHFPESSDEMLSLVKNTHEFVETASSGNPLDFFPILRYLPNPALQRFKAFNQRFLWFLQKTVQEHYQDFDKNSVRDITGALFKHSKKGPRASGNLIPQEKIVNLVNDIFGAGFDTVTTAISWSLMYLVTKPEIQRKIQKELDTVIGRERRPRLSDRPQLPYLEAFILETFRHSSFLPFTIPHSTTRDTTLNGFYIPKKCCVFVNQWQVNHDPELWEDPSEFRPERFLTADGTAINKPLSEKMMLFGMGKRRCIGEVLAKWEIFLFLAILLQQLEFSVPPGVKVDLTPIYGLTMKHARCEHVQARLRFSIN
Procedure: (2) Direct inhibition test (DI test): 1004 of human liver microsomes (final concentration was 0.2 mg/mL) system was subjected to inhibition incubation directly, the system contains NADPH (final concentration was 1 mM), 10 μM compound, positive inhibitor cocktail (ketoconazole 10 μM, quinidine 10 μM, sulfapyrazole 100 μM, a-naphthoflavone 10 μM, tranylcypromine […]), negative control (0.1% DMSO BPS) and mixed probe substrate (midazolam 1004, testosterone 10004, dextromethorphan 10 μM, diclofenac 20 μM, phenacetin 100 μM, mephenytoin 100 μM), the reaction was terminated after incubation for 20 min. The relative enzyme activity was calculated by measuring the relative production of metabolites.

[5] = system: MV 4-11 transplanted tumor; experiment: Growth inhibition of MV 4-11 transplanted tumor in nude mice; type: in vivo; settings: for inhibitory rate (growth of transplanted tumor): dose of 15 mpk, oral, daily; for tolerability in experimental animals / tumor inhibitory effect: higher doses, 50 mg/kg-100 mg/kg
Procedure: The tumor tissue in vigorous growth stage was cut into about 1.5 mm^3 and inoculated subcutaneously in the right armpit of nude mice under sterile conditions. The diameter of subcutaneous transplanted tumor in nude mice was measured with vernier caliper, and the animals were randomly divided into groups when the average tumor volume was about 130 mm^3. […] During the whole experiment, the diameter of the transplanted tumor was measured twice a week, and the weight of mice was weighed at the same time. The calculation formula of tumor volume (TV) was: TV=½×a×b^2, wherein a and b represent the length and width respectively. The relative tumor volume (RTV) was calculated according to the measurement results, and the calculation formula was: RTV=VT/v0. Wherein VO is the tumor volume measured during the administration in cage (i.e., d0), and Vt is the tumor volume at each measurement.

Work on Cc1cc(F)cc(C)c1Oc1ccc(C(C)(C)O)cc1-c1cn(C)c(=O)c2cc(C(=O)NC3CC(F)(F)C3)[nH]c12 [Embodiment 18, N-(3,3-difluorocyclobutyl)-7-(2-(4-fluoro-2,6-dimethylphenoxy)-5-(2-hydroxyprop-2-yl)phenyl)-5-methyl-4-oxo-4,5-dihydro-1H-pyrrolo[3,2-c] pyridine-2-amide] yielded a bioavailability [1] of over 40%, an AUC [1] of over 5 µM·h and a Cmax [1] of over 1500 nM. For the same compound, the half-life [1] was over 3 h, the IC50 [2] was under 1 µM and the AUC [3] was over 15 µM·h. It also gave a Cmax [3] of 2000 nM, a half-life [3] of over 2 h and an IC50 [4] of under 0.1 µM. It also gave an IC50 (H1299) of over 1 µM, an IC50 (BRD4-BD2; AlphaScreen, protein binding inhibition, read-out: BRD4-BD2 IC50) of under 0.0005 µM and an IC50 (CYP1A2) of over 15 µM. For the same compound, the “inhibitory rate (growth of transplanted tumor)” value [5] was 82%, the “tolerability in experimental animals” value [5] was “tolerate it well” and the tumor inhibitory effect [5] was “obvious”.

Compound CCNC(=O)c1cc2c(=O)n(C)cc(-c3cc(C(C)(C)O)ccc3Oc3c(C)cc(F)cc3C)c2[nH]1 [compound 1, reference compound] has a bioavailability [1] of over 40%, an AUC [1] of over 5 µM·h and a Cmax [1] of over 1500 nM. The half-life [1] was over 3 h, the IC50 [2] was under 1 µM and the AUC [3] was over 15 µM·h. It also gave a Cmax [3] of 2000 nM, a half-life [3] of over 2 h and an IC50 [4] of under 0.1 µM. The IC50 (H1299) was over 1 µM, the IC50 (BRD4-BD2) was 0.00065 µM and the IC50 (CYP1A2) was over 15 µM. For the same compound, the “inhibitory rate (growth of transplanted tumor)” value [5] was 82%, the “tolerability in experimental animals” value [5] was “tolerate it well” and the tumor inhibitory effect [5] was “obvious”.
